How the values were obtained:
Format in all cases: in vivo
[1] = test system: Neutrophil Count (ANC); test: Lookup table: marker validity (nadir) window, Neutrophil Count (ANC); conditions: days elapsed between current dose and marker; for Neutrophil Count (ANC) LL: lower limit of nadir range; for Neutrophil Count (ANC) UL: upper limit of nadir range
Source text: (§1) A lookup table has been constructed (see above example), in the form of a table, to represent the relationship of each trial Agent and its qualified Clinical Markers. This table includes information regarding the Maximum Dose and the Inverse Marker Applicability for each Agent. The gray cells on the Cycle Dose Modifier indicate these values.
(§2) The table also includes information regarding the nadir of applicability for each Agent—Marker combination. The range, in days and indicated as the Lower Limit and Upper limit, has been determined by calculating a percentage (20%) above and below the true nadir value when only a single value is known. Otherwise, the upper and lower nadir values are used. […] The values of Upper and Lower limits is shown as a property of the Association between Markers and Agents. The Relevancy of a Marker can be computed using the lookup table by comparing the number of days elapsed between the date of the application of the current dose and the date on which the Marker was taken to the upper and lower values for that Agent Marker Association. If the elapsed days are greater than or equal to the lower limit and less than or equal to the upper limit, then the calculations provided by the Cycle Dose Modifier are said to be relevant and thereby applicable as indicated in the yellow Marker Validity cell. The Relevancy of Cycle Dose Modifier Calculations for Agent 1 is based on the Validity of Marker for Agent 1 calculated by: =IF(and((($B13−B6)>=VLOOKUP(B$3,Validity!$A$3:$K$8,10)),((B$13−B6)<=VLOOKUP(B$3,Validity!$A$3:$K$8,11))),“valid”,“invalid”)

[2] = test system: Hemoglobin (Hgb); test: Lookup table: marker validity (nadir) window, Hemoglobin (Hgb); conditions: days elapsed between current dose and marker; for Hemoglobin (Hgb) LL: lower limit of nadir range; for Hemoglobin (Hgb) UL: upper limit of nadir range
Source text: as §1, §2

[3] = test system: Platelets; test: Lookup table: marker validity (nadir) window, Platelets; conditions: days elapsed between current dose and marker; for Platelets LL: lower limit of nadir range; for Platelets UL: upper limit of nadir range
Source text: as §1, §2

[4] = test system: LDL; test: Non-Pharm Example 1: doublet Lipitor and aerobics, LDL marker
Source text: (§3) Efficacy/Toxicity Determinant Agent 2 (Gemzar) (ETD2) is a value determined by the prescriber. Set at an initial value of 1, this value is then adjusted based upon actual case scenarios with a full data set to adjust the value to identify the contribution to the toxicity or efficacy until the actual value is achieved. It can be used to modify dose based upon non-pharmacologic effects such as diet, exercise and activity as determined by the prescriber. A non-pharmacologic two-part combination therapy example could include a cholesterol lowering agent and exercise or cholesterol lowering agent and a restrictive diet. In place of dose the exercise value would be measured in ‘METS’ (Metabolic Equivalent of oxygen consumption) or the dietary prescription in calories or grams of fat or cholesterol.
Doublet Agent One: Pharmacologic, Agent Two:Non-Pharmacologic (Exercise)

[5] = test system: LDL; test: Non-Pharm Example 2: triplet Lipitor, aerobics and diet, LDL marker
Source text: as §3, with “Set” for “Efficacy/Toxicity Determinant Agent 2 (Gemzar) (ETD2) is a value determined by the prescriber. Set”, “three-part” for “two-part”, “agent,” for “agent and”, “exercise” for “exercise or cholesterol lowering agent”, “of” for “of fat or”
Triplet, Agent One: Pharmacologic, Agent Two: Non-Pharmacologic (Exercise), Agent Three: Diet (Grams of Cholesterol)

[6] = test system: INR; test: Single agent cycle dose modifier, warfarin sodium patient example; conditions: for Current Level of Efficacy/CLTE: current cycle total dose 57, dose Oct. 21, marker Oct. 26, 2004; for Previous Level of Efficacy/PLTE: previous cycle total dose 60, seven-day cycle
Source text: Warfarin Sodium (coumadin) is used in this example as a single agent. Table 1 illustrates a method of revising a drug dose in treating a patient with one pharamcologic […] modality to optimize pharmacologic outcome and to reduce the risk of an adverse drug event while assessing the clinical relevancy and validity of the measured surrogate marker.
In Table 1, Previous Cycle Total Dose (PCTD) is a value directly entered without new calculation. It is the cumulative amount of the agent administered during the previous treatment cycle as defined by the total amount of drug given over a fixed period of time, such as in chemotherapy, the total amount, e.g., mg/m^2, administered throughout the defined regimen period. In this single agent therapy example for chronic disease management, that is, prevention of venous thrombosis with warfarin sodium, the cycle becomes the total amount of warfarin sodium, in milligrams, administered over a seven-day period. The period is determined when the modifier is constructed.
Previous Level of Toxicity-Efficacy (PLTE) is a value directly entered such as from a lab report. It is the numerical value of a marker of toxicity or efficacy reported at the previous dose cycle adjustment (evaluated at a specified elapsed time sufficient to capture the nadir of the dose effect). The surrogate marker is selected when the dose modifier is constructed.
Current Level of Toxicity-Efficacy (CLTE) is also a value directly entered such as from a lab report. It is the numerical value of the marker of toxicity or efficacy reported with the current dose cycle. The surrogate marker is that value that illustrates the expression of the toxicity or efficacy of the agent on a specific and pre-selected value determined when the dose modifier is constructed. The value is selected based upon the agent, its pharmacologic properties and the disease condition under treatment. The confidence or validity of the marker is based upon its maturity of effect in that a nadir or cycle of effect is dynamic and may vary based upon the time span between receipt of the agent and sampling of the value. Therefore the value may be valid or invalid based upon this timing factor. If invalid, then the dose adjustment cannot be made. If valid, then the value is fully appreciated and the dose modification can be calculated. The surrogate marker is selected when the dose modifier is constructed.
Expected Current Level (ECL) is a comparative operator used to illustrate the mathematical expectation of the patient's response to the actual patient response to classify their individual response characteristics. […]

SMILES | Neutrophil Count (ANC) LL [1] [days] | Neutrophil Count (ANC) UL [1] [days] | Hemoglobin (Hgb) LL [2] [days] | Hemoglobin (Hgb) UL [2] [days] | Platelets LL [3] [days] | Platelets UL [3] [days] | Current Level of Efficacy/CLTEM1 ([4]; current cycle Lipitor 280 with aerobics 168/week, marker Dec. 05, 2004) | Previous Level of Efficacy/PLTEM1 ([4]; previous cycle Lipitor 210 with aerobics 140/week) | Current Level of Efficacy CLTEM1 ([5]; current cycle Lipitor 300.00 with aerobics 168/week and diet 182/week, marker Dec. 05, 2004) | Previous Level of/PLTEM1 ([5]; previous cycle Lipitor 220.00 with aerobics 140/week and diet 210/week) | Current Level of Efficacy/CLTE ([6]; Comparison Cycle column) | Previous Level of Efficacy/PLTE ([6]; Comparison Cycle column) | Current Level of Efficacy/CLTE ([6]; Current Cycle column) | Previous Level of Efficacy/PLTE ([6]; Current Cycle column)
N.N.O=C([O-])C1(C(=O)[O-])CCC1.[Pt+2] [Carboplatin] | 17 | 25 | 14 | 21 | 17 | 25 | – | – | – | – | – | – | – | –
N.N.[Cl][Pt][Cl] [Cisplatin] | 18 | 23 | 18 | 23 | 18 | 23 | – | – | – | – | – | – | – | –
Nc1ccn([C@@H]2O[C@H](CO)[C@@H](O)C2(F)F)c(=O)n1 [Gemzar] | 7 | 10 | 7 | 10 | 7 | 10 | – | – | – | – | – | – | – | –
CC(C)c1c(C(=O)Nc2ccccc2)c(-c2ccccc2)c(-c2ccc(F)cc2)n1CC[C@@H](O)C[C@@H](O)CC(=O)O [Lipitor] | – | – | – | – | – | – | 120 | 150 | 122 | 140 | – | – | – | –
CC(=O)O[C@@]12CO[C@@H]1C[C@H](O)[C@@]1(C)C(=O)[C@H](O)C3=C(C)[C@@H](OC(=O)[C@H](O)[C@@H](NC(=O)OC(C)(C)C)c4ccccc4)C[C@@](O)([C@@H](OC(=O)c4ccccc4)[C@H]21)C3(C)C [Taxotere] | 6 | 8 | 8 | 11 | 6 | 8 | – | – | – | – | – | – | – | –
CC(=O)CC(c1ccccc1)c1c(O)c2ccccc2oc1=O (centres unmarked) [Warfarin Sodium] | – | – | – | – | – | – | – | – | – | – | 3.80 | 4.50 | 3.80 | 4.50

Reference: patent publication US20050154537A1, “Methods, program products, and systems for single and multi-agent dosing and other related methods” (priority 2003, published 2005)
